Holding throughout (assay): microbe, parasite or virus in culture
What all share (format): cell-based, Hepatitis C virus (HCV)

One assay has as its system HCV replicon 2B. The conditions noted are these: Replicon Assay A. The method, boiled down: (§1)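 Replicon cells incubated with compound for 3 days in medium with 5% FBS and 0.5% DMSO final. Replicon RNA measured in lysates by multiplex real-time RT-PCR (Neo set) against cyclophilin control, quantified from standard curves of Ct versus log ng replicon total RNA.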
The next assay concerns HCV replicon 1A. The conditions noted are these: replicon 1A, Replicon Assay A. The method, boiled down:
as §1

For the next assay, the system named is HCV replicon 1AY93H. The conditions noted are these: Replicon Assay A. A digest of the protocol: as §1
[1] abbreviates: read-out: 1A Y93H IC50, replicon 1AY93H.
Where [2] appears, read: Hepatitis C virus, read-out: 1A Y93H IC50 (nM), replicon 1AY93H.

Broadly, the IC50 is the concentration that inhibits the measured activity by half.

SMILES strings stand for the structures. Where two headings read alike, the source gives them in different places.

`COC(=O)N[C@H](C(=O)N1CCC[C@H]1c1ncc(-c2cc(F)c3c(c2)OC(c2csc4ccccc24)n2c-3cc3cc(-c4cnc([C@@H]5CCCN5C(=O)[C@@H](NC(=O)OC)C(C)C)[nH]4)ccc32)[nH]1)C(C)C` (single isomer, unassigned) [Compound 324]: the IC50 was determined as 7.99 nM in the assay with HCV replicon 2B (read-out: 2B IC50, replicon 2B); 0.0014 nM with HCV replicon 1A; 4.89 nM in the assay with HCV replicon 1AY93H (setting [1]).

For the molecule `COC(=O)N[C@H](C(=O)N1CCC[C@H]1c1ncc(-c2cc(F)c3c(c2)OC(c2sc(C4CC4)cc2C)n2c-3cc3cc(-c4cnc([C@@H]5CCCN5C(=O)[C@@H](NC(=O)OC)C(C)C)[nH]4)ccc32)[nH]1)C(C)C` (single isomer, unassigned) [Compound 328], the IC50 with HCV replicon 2B (read-out: 2B IC50, replicon 2B) was found to be 1.73 nM; in the assay on HCV replicon 1A (Hepatitis C virus) it was 0.001 nM; in the assay with HCV replicon 1AY93H (setting [1]), 2.8 nM.

Regarding `COC(=O)N[C@H](C(=O)N1CCC[C@H]1c1ncc(-c2cc(F)c3c(c2)OC(c2sc(C4CC4)cc2C)n2c-3cc3cc(-c4cnc([C@@H]5CCCN5C(=O)[C@@H](NC(=O)OC)C(C)C)[nH]4)ccc32)[nH]1)C(C)C` (single isomer, unassigned) [Compound 329], the IC50 in the assay on HCV replicon 2B (read-out: 2B IC50, replicon 2B) is 0.605 nM; in the assay with HCV replicon 1A, 0.0012 nM; in the assay with HCV replicon 1AY93H (setting [1]), 0.937 nM.

For `COC(=O)N[C@H](C(=O)N1CCC[C@H]1c1ncc(-c2cc(F)c3c(c2)OC(c2ccc(C(C)CF)s2)n2c-3cc3cc(-c4cnc([C@@H]5CCCN5C(=O)[C@@H](NC(=O)OC)C(C)C)[nH]4)ccc32)[nH]1)C(C)C` (single isomer, unassigned) [Compound 332], the IC50 came out at 1.39 nM in the assay on HCV replicon 2B (read-out: 2B IC50, replicon 2B); 0.0011 nM with HCV replicon 1A (Hepatitis C virus); 0.765 nM in the assay with HCV replicon 1AY93H (setting [2]).

Consider `COC(=O)N[C@H](C(=O)N1CCC[C@H]1c1ncc(-c2ccc3c(c2)OC(c2ccc(C4CC4)s2)n2c-3cc3cc(-c4cnc([C@@H]5CCCN5C(=O)[C@@H](NC(=O)OC)C5CCOCC5)[nH]4)ccc32)[nH]1)C(C)C` (single isomer, unassigned) [Compound 334], for which the IC50 with HCV replicon 2B (read-out: 2B IC50, replicon 2B) is 0.0768 nM; in the assay with HCV replicon 1A (Hepatitis C virus) it was 0.0024 nM; in the assay on HCV replicon 1AY93H (setting [1]), 0.159 nM.

Regarding `COC(=O)NC(C(=O)N1CCC[C@H]1c1ncc(-c2ccc3c(c2)cc2n3C(c3ccc(C4CC4)s3)Oc3cc(-c4cnc([C@@H]5CCCN5C(=O)[C@@H](NC(=O)OC)C(C)C)[nH]4)cc(F)c3-2)[nH]1)C1C2COCC21` (single isomer, unassigned) [Compound 338], the IC50 in the assay with HCV replicon 2B (read-out: 2B IC50, replicon 2B) amounted to 1.52 nM; in the assay on HCV replicon 1A (Hepatitis C virus) it was 0.0024 nM; in the assay on HCV replicon 1AY93H (setting [1]), 0.357 nM.

In the case of `COC(=O)N[C@H](C(=O)N1CCC[C@H]1c1ncc(-c2cc(F)c3c(c2)OC(c2ccc(C(C)C)s2)n2c-3cc3cc(-c4cnc([C@@H]5CCCN5C(=O)[C@@H](NC(=O)OC)C5CCOCC5)[nH]4)ccc32)[nH]1)C(C)C` (single isomer, unassigned) [Compound 344], the IC50 in the assay on HCV replicon 2B (read-out: 2B IC50, replicon 2B) is 0.242 nM; with HCV replicon 1A (Hepatitis C virus), 0.0015 nM; in the assay on HCV replicon 1AY93H (setting [1]), 0.128 nM.

Consider `COC(=O)NC(C(=O)N1CCC[C@H]1c1ncc(-c2ccc3c(c2)cc2n3C(c3ccc(F)s3)Oc3cc(-c4cnc([C@@H]5CCCN5C(=O)[C@@H](NC(=O)OC)C(C)C)[nH]4)cc(F)c3-2)[nH]1)C1C[C@@H](C)O[C@@H](C)C1` (single isomer, unassigned) [Compound 349], for which the IC50 amounted to 0.39 nM in the assay on HCV replicon 2B (read-out: 2B IC50, replicon 2B); 0.0014 nM in the assay on HCV replicon 1A; 0.266 nM with HCV replicon 1AY93H (setting [1]).

For the molecule `COC(=O)NC(C(=O)N1CCC[C@H]1c1ncc(-c2ccc3c(c2)cc2n3C(c3ccc(C4CC4)s3)Oc3cc(-c4cnc([C@@H]5CCCN5C(=O)[C@@H](NC(=O)OC)C(C)C)[nH]4)cc(F)c3-2)[nH]1)C1CCO[C@@H](C)C1` (single isomer, unassigned) [Compound 354], the IC50 in the assay on HCV replicon 2B (read-out: 2B IC50, replicon 2B) turned out to be 0.602 nM; with HCV replicon 1A (Hepatitis C virus), 0.002 nM; in the assay on HCV replicon 1AY93H (setting [1]) it was 0.38 nM.

Take `COC(=O)NC(C(=O)N1CCC[C@H]1c1ncc(-c2ccc3c(c2)cc2n3C(c3ccc(C4CC4)s3)Oc3cc(-c4cnc([C@@H]5CCCN5C(=O)[C@@H](NC(=O)OC)C(C)C)[nH]4)cc(F)c3-2)[nH]1)C1CCO[C@@H](C)C1` (single isomer, unassigned) [Compound 355]: the IC50 in the assay on HCV replicon 2B (read-out: 2B IC50, replicon 2B) worked out at 2.8 nM; with HCV replicon 1A it was 0.0019 nM; in the assay with HCV replicon 1AY93H (setting [1]), 1.75 nM.

With `CCc1ccc(C2Oc3cc(-c4cnc(C5CCCN5C(=O)C(NC(=O)OC)C5C[C@@H](C)O[C@@H](C)C5)[nH]4)ccc3-c3cc4c(F)c(-c5cnc([C@@H]6CCCN6C(=O)[C@@H](NC(=O)OC)C(C)C)[nH]5)ccc4n32)s1` (single isomer, unassigned) [Compound 358], the IC50 with HCV replicon 2B (read-out: 2B IC50, replicon 2B) was 2.49 nM; in the assay with HCV replicon 1A (Hepatitis C virus), 0.0047 nM; in the assay on HCV replicon 1AY93H (setting [1]), 2.62 nM.

Regarding `CCc1ccc(C2Oc3cc(-c4c[nH]c([C@@H]5CCCN5C(=O)[C@@H](NC(=O)OC)C(C)C)n4)ccc3-c3cc4c(F)c(-c5c[nH]c([C@@H]6CCCN6C(=O)C(NC(=O)OC)C6C[C@@H](C)O[C@@H](C)C6)n5)ccc4n32)s1` (single isomer, unassigned) [Compound 360], the IC50 was 2.52 nM in the assay with HCV replicon 2B (read-out: 2B IC50, replicon 2B); 0.0025 nM in the assay on HCV replicon 1A (Hepatitis C virus); 3.56 nM with HCV replicon 1AY93H (setting [1]).

For the molecule `COC(=O)NC(C(=O)N1CCC[C@H]1c1ncc(-c2ccc3c(c2)cc2n3C(c3ccc(C(C)C)s3)Oc3cc(-c4cnc([C@@H]5CCCN5C(=O)[C@@H](NC(=O)OC)C(C)C)[nH]4)cc(C)c3-2)[nH]1)C1C[C@@H](C)O[C@@H](C)C1` (single isomer, unassigned) [Compound 365], the IC50 with HCV replicon 2B (read-out: 2B IC50, replicon 2B) came to 0.154 nM; in the assay on HCV replicon 1A (Hepatitis C virus), 0.0027 nM; in the assay with HCV replicon 1AY93H (setting [1]), 0.38 nM.

In the case of `COC(=O)NC(C(=O)N1CCC[C@H]1c1ncc(-c2ccc3c(c2)cc2n3C(c3cc4nccnc4s3)Oc3cc(-c4cnc([C@@H]5CCCN5C(=O)[C@@H](NC(=O)OC)C(C)C)[nH]4)cc(F)c3-2)[nH]1)C1C[C@@H](C)O[C@@H](C)C1` (single isomer, unassigned) [Compound 371], the IC50 in the assay with HCV replicon 2B (read-out: 2B IC50, replicon 2B) is 0.0627 nM; in the assay on HCV replicon 1A (Hepatitis C virus) it was 0.0042 nM; with HCV replicon 1AY93H (setting [1]), 0.553 nM.

On to `COC(=O)NC(C(=O)N1CCCC1c1ncc(-c2cc(F)c3c(c2)OC(c2ccc(C4CCC4)s2)n2c-3cc3cc(-c4cnc(C5CCCN5C(=O)C(NC(=O)OC)C5CC(C)OC(C)C5)[nH]4)ccc32)[nH]1)C(C)C` (single isomer, unassigned) [Compound 373], for which the IC50 in the assay on HCV replicon 2B (replicon 2B, read-out: 2B IC50) is 0.156 nM; in the assay with HCV replicon 1A, 0.001 nM; with HCV replicon 1AY93H (replicon 1AY93H, read-out: 1A Y93H IC50) it was 0.248 nM.

Regarding `COC(=O)N[C@@H](Cc1ccccc1)C(=O)N1CCC[C@H]1c1ncc(-c2ccc3c(c2)OC(c2ccc(-c4ccc(NC(=O)CCCC[C@@H]5SC[C@@H]6NC(=O)N[C@@H]65)cc4)s2)n2c-3cc3cc(-c4cnc([C@@H]5CCCN5C(=O)[C@H](Cc5ccccc5)NC(=O)OC)[nH]4)ccc32)[nH]1` (single isomer, unassigned) [Compound 383], the IC50 turned out to be 8.74 nM with HCV replicon 2B (read-out: 2B IC50, replicon 2B); 0.0367 nM with HCV replicon 1A; 6.34 nM with HCV replicon 1AY93H (setting [1]).

Take `COC(=O)N[C@@H](Cc1ccccc1)C(=O)N1CCC[C@H]1c1ncc(-c2ccc3c(c2)OC(c2ccc(-c4ccc(NC(=O)CCCC[C@@H]5SC[C@@H]6NC(=O)N[C@@H]65)cc4)s2)n2c-3cc3cc(-c4cnc([C@@H]5CCCN5C(=O)[C@H](Cc5ccccc5)NC(=O)OC)[nH]4)ccc32)[nH]1` (single isomer, unassigned) [Compound 385]: the IC50 in the assay with HCV replicon 2B (read-out: 2B IC50, replicon 2B) turned out to be 7.21 nM; with HCV replicon 1A, 0.109 nM; in the assay with HCV replicon 1AY93H (setting [1]) it was 3.11 nM.

For `COC(=O)N[C@H](C(=O)N1CCC[C@H]1c1ncc(-c2cc(F)c3c(c2)OC(c2ccc(CC4CC4)s2)n2c-3cc3cc(-c4cnc([C@@H]5C[C@H]6C[C@H]6N5C(=O)[C@@H](NC(=O)OC)C(C)C)[nH]4)ccc32)[nH]1)C(C)C` (single isomer, unassigned) [Compound 390], the IC50 is 0.754 nM in the assay with HCV replicon 2B (read-out: 2B IC50, replicon 2B); 0.003 nM with HCV replicon 1A; 0.314 nM in the assay with HCV replicon 1AY93H (setting [1]).

In the case of `COC(=O)N[C@H](C(=O)N1CCC[C@H]1c1ncc(-c2cc(F)c3c(c2)OC(c2cc4c(s2)C(C)(C)CC4)n2c-3cc3cc(-c4cnc([C@@H]5CCCN5C(=O)[C@@H](NC(=O)OC)C(C)C)[nH]4)ccc32)[nH]1)C(C)C` (single isomer, unassigned) [Compound 392], the IC50 is 0.373 nM with HCV replicon 2B (Hepatitis C virus, read-out: 2B IC50 (nM), replicon 2B); 0.0038 nM with HCV replicon 1A; 0.0514 nM with HCV replicon 1AY93H (setting [2]).

As to `COC(=O)N[C@H](C(=O)N1CCC[C@H]1c1ncc(-c2cc(F)c3c(c2)OC(c2cc4c(s2)CCC(C)(C)O4)n2c-3cc3cc(-c4cnc([C@@H]5CCCN5C(=O)[C@@H](NC(=O)OC)C(C)C)[nH]4)ccc32)[nH]1)C(C)C` (single isomer, unassigned) [Compound 398], the half-inhibitory concentration (IC50) in the assay on HCV replicon 2B (read-out: 2B IC50, replicon 2B) was found to be 0.494 nM; in the assay on HCV replicon 1A, 0.0015 nM; in the assay with HCV replicon 1AY93H (setting [1]), 0.955 nM.

In the case of `COCC(C)(C)c1ccc(C2Oc3cc(-c4cnc([C@@H]5CCCN5C(=O)[C@@H](NC(=O)OC)C(C)C)[nH]4)cc(F)c3-c3cc4cc(-c5cnc([C@@H]6CCCN6C(=O)[C@@H](NC(=O)OC)C(C)C)[nH]5)ccc4n32)s1` (single isomer, unassigned) [Compound 400], the IC50 in the assay with HCV replicon 2B (read-out: 2B IC50, replicon 2B) is 1.69 nM; with HCV replicon 1A, 0.0017 nM; in the assay on HCV replicon 1AY93H (setting [1]), 0.151 nM.

In the case of `COC(=O)NC(C(=O)N1CCC[C@H]1c1ncc(-c2ccc3c(c2)cc2n3C(c3ccc(C4CC4)s3)Oc3cc(-c4cnc([C@@H]5CCCN5C(=O)[C@@H](NC(=O)OC)C(C)C)[nH]4)cc(F)c3-2)[nH]1)C1C[C@H](C)O[C@@H](C)C1` (single isomer, unassigned) [Compound 404], the IC50 is 1.67 nM in the assay on HCV replicon 2B (read-out: 2B IC50, replicon 2B); 0.0022 nM with HCV replicon 1A; 1.25 nM in the assay with HCV replicon 1AY93H (setting [1]).

The record behind these values is US20160257697A1, “THIOPHENE-SUBSTITUTED TETRACYCLIC COMPOUNDS AND METHODS OFUSE THEREOF FOR THE TREATMENT OF VIRAL DISEASES” (priority 2013, published 2016).
